{"source": "paper PMC6688997", "about": "(Nature Communications, 2019)", "experiment_in_all_cases": "Kinase assay, 1 mM ATP", "format_in_all_cases": "biochemical", "key": {"EPHA7": {"molecular_target": "EPHA7 (Homo sapiens, UniProt Q15375)", "protocol": "(§1) An off-chip mobility shift assay was performed by Carna Biosciences, Inc. (Kobe, Japan), according to their product instructions. […] The IC50 values were estimated according to the four-parameter logistic model."}, "PIM1": {"molecular_target": "PIM1 (Homo sapiens, UniProt P11309)", "sequence (P11309 whole entry)": "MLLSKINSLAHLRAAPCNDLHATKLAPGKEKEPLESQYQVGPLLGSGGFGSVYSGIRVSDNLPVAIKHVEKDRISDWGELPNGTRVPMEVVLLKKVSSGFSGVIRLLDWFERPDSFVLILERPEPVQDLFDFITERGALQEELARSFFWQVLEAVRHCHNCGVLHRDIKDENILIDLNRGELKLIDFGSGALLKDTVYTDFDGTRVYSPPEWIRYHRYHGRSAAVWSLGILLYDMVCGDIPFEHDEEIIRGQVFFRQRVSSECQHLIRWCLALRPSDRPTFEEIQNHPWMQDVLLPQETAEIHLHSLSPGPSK", "protocol": "as §1"}, "PDGFRβ": {"molecular_target": "T1, PDGFRβ (Homo sapiens, UniProt P09619)", "T1 construct": "purchased Carna Biosciences", "T1 sequence (P09619 33-1106)": "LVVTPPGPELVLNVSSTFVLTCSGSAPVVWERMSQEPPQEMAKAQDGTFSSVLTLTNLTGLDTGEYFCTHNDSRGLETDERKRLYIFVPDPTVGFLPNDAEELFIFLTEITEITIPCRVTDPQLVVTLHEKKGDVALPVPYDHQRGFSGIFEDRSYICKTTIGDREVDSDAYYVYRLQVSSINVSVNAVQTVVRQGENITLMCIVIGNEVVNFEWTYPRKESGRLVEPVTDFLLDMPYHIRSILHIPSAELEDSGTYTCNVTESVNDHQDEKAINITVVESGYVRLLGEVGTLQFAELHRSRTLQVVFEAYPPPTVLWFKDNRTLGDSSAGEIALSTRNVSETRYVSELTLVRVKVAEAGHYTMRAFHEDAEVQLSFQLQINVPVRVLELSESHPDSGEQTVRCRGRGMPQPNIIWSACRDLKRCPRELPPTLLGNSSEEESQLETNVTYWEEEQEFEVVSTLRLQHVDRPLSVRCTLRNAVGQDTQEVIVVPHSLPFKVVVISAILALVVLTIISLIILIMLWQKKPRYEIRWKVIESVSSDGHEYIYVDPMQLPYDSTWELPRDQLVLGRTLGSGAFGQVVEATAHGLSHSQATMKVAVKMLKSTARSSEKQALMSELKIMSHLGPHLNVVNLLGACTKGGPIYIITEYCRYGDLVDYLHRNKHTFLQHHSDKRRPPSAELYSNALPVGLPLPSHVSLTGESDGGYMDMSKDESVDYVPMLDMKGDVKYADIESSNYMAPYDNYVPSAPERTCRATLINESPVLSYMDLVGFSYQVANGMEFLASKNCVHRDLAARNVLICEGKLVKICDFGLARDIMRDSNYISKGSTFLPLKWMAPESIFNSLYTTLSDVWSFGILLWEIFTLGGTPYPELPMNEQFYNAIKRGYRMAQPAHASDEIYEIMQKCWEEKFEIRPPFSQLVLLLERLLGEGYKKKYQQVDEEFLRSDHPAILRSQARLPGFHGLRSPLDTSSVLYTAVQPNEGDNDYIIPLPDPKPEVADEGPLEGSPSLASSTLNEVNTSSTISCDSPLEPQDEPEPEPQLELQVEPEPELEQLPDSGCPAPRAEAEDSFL", "protocol": "as §1"}, "PKD2": {"molecular_target": "T2, PKD2 (Homo sapiens, UniProt Q9BZL6)", "T2 construct": "purchased Carna Biosciences", "protocol": "as §1"}, "TYRO3": {"molecular_target": "T3, TYRO3 (Homo sapiens, UniProt Q06418)", "T3 construct": "purchased Carna Biosciences", "protocol": "as §1"}, "EPHA8": {"molecular_target": "T4, EPHA8 (Homo sapiens, UniProt P29322)", "T4 construct": "purchased Carna Biosciences", "protocol": "as §1"}, "SIK": {"molecular_target": "T5, SIK (Homo sapiens, UniProt P57059)", "T5 construct": "purchased Carna Biosciences", "protocol": "as §1"}, "PKCε": {"molecular_target": "T6, PKCε (Homo sapiens, UniProt Q02156)", "T6 construct": "purchased Carna Biosciences", "protocol": "as §1"}, "skMLCK": {"molecular_target": "skMLCK (Homo sapiens, UniProt Q9H1R3)", "protocol": "as §1"}, "p38β": {"molecular_target": "p38β (Homo sapiens, UniProt Q15759)", "sequence (Q15759 whole entry)": "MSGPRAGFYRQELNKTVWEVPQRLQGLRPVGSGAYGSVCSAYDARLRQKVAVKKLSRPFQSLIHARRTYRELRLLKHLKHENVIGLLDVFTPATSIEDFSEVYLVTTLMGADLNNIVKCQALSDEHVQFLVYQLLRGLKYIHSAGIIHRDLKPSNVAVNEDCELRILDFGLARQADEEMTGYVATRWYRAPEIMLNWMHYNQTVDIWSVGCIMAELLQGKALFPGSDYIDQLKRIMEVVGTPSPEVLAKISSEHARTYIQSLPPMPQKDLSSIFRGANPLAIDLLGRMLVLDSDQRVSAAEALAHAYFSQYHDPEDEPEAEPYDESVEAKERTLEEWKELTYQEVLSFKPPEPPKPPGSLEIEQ", "protocol": "as §1"}, "CDK6/CycD3": {"molecular_target": "CDK6/CycD3 (Homo sapiens, UniProt Q00534)", "protocol": "as §1"}, "HIPK4": {"molecular_target": "HIPK4 (Homo sapiens, UniProt Q8NE63)", "protocol": "as §1"}, "HGK": {"molecular_target": "T7, HGK (Homo sapiens, UniProt O95819)", "T7 construct": "purchased Carna Biosciences", "protocol": "as §1"}, "RET": {"molecular_target": "T8, RET (Homo sapiens, UniProt P07949)", "T8 construct": "purchased Carna Biosciences", "T8 sequence (P07949 29-1114)": "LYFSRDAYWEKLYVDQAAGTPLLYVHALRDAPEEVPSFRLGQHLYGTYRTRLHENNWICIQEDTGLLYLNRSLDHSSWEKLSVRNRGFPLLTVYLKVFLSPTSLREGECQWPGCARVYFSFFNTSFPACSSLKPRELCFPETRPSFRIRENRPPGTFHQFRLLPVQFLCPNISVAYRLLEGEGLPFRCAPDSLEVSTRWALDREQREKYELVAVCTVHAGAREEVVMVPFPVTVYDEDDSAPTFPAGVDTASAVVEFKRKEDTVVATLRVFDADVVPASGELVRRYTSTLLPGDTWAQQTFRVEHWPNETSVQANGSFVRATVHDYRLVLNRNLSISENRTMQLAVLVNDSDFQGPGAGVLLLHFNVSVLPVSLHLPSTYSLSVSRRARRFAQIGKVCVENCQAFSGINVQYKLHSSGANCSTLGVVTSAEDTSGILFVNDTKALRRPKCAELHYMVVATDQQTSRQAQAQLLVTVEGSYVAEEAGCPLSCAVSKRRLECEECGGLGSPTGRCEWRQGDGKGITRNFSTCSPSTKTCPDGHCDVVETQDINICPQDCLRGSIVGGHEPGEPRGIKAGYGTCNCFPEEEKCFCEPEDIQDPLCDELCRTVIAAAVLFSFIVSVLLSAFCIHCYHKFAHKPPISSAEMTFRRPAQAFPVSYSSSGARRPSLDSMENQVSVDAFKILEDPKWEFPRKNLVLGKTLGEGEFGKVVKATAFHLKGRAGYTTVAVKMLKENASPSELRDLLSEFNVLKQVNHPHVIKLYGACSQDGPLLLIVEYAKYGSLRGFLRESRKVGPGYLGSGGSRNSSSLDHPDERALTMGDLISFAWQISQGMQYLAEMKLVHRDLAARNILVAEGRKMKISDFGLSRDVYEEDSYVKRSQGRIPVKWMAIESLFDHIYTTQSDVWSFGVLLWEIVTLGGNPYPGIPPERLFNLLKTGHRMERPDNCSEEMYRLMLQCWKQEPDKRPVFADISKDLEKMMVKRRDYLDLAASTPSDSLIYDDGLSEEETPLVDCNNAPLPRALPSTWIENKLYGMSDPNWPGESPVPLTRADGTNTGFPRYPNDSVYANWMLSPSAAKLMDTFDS", "protocol": "as §1"}, "FGFR4": {"molecular_target": "FGFR4 (Homo sapiens, UniProt P22455)", "sequence (P22455 22-802)": "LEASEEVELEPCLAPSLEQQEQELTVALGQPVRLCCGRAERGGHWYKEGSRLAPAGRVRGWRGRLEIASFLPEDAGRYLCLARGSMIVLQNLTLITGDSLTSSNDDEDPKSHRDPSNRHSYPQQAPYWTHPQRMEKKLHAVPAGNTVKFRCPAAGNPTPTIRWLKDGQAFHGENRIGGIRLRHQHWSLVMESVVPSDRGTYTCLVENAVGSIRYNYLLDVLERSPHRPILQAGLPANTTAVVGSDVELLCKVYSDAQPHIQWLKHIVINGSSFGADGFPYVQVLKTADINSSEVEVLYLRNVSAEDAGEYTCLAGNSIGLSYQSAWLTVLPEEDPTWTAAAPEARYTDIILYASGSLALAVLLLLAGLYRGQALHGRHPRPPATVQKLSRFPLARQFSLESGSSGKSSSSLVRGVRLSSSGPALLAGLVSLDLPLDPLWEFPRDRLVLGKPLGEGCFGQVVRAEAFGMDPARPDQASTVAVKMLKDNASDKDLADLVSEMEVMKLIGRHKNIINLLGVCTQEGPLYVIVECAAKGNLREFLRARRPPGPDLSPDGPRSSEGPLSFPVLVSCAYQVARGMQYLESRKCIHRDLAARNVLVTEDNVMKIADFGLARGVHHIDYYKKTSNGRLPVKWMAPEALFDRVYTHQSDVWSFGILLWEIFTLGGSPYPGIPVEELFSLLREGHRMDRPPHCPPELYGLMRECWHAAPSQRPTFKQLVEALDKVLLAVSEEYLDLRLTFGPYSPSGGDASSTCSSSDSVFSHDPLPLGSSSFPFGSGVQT", "protocol": "as §1"}, "PYK2": {"molecular_target": "T9, PYK2 (Homo sapiens, UniProt Q14289)", "T9 construct": "purchased Carna Biosciences", "protocol": "as §1"}, "SGK": {"molecular_target": "T10, SGK (Homo sapiens, UniProt O00141)", "T10 construct": "purchased Carna Biosciences", "protocol": "as §1"}, "AKT1": {"molecular_target": "AKT1 (Homo sapiens, UniProt P31749)", "protocol": "as §1"}, "EGFR(d746-750)": {"molecular_target": "T11, EGFR(d746-750) (Homo sapiens, UniProt P00533, DEL746-750)", "T11 construct": "purchased Carna Biosciences", "protocol": "as §1"}, "Erk2": {"molecular_target": "Erk2 (Homo sapiens, UniProt P28482)", "protocol": "as §1"}, "NEK6": {"molecular_target": "T12, NEK6 (Homo sapiens, UniProt Q9HC98)", "T12 construct": "purchased Carna Biosciences", "protocol": "as §1"}, "CDK3/CycE1": {"molecular_target": "CDK3/CycE1 (Homo sapiens, UniProt Q00526)", "protocol": "as §1"}, "EPHB3": {"molecular_target": "EPHB3 (Homo sapiens, UniProt P54753)", "protocol": "as §1"}, "TYK2": {"molecular_target": "TYK2 (Homo sapiens, UniProt P29597)", "protocol": "as §1"}, "LCK": {"molecular_target": "LCK (Homo sapiens, UniProt P06239)", "protocol": "as §1"}, "IRAK4": {"molecular_target": "IRAK4 (Homo sapiens, UniProt Q9NWZ3)", "protocol": "as §1"}, "EPHB4": {"molecular_target": "EPHB4 (Homo sapiens, UniProt P54760)", "protocol": "as §1"}, "NEK2": {"molecular_target": "NEK2 (Homo sapiens, UniProt P51955)", "protocol": "as §1"}, "JAK3": {"molecular_target": "T13, JAK3 (Homo sapiens, UniProt P52333)", "T13 construct": "purchased Carna Biosciences", "protocol": "as §1"}, "CDK5/p25": {"molecular_target": "CDK5/p25 (Homo sapiens, UniProt Q00535)", "protocol": "as §1"}, "SRC": {"molecular_target": "SRC (Homo sapiens, UniProt P12931)", "protocol": "as §1"}, "CaMK1α": {"molecular_target": "CaMK1α (Homo sapiens, UniProt Q14012)", "protocol": "as §1"}, "RET(M918T)": {"molecular_target": "T14, RET(M918T) (Homo sapiens, UniProt P07949, M918T)", "T14 construct": "purchased Carna Biosciences", "T14 sequence (P07949 29-1114 M918T)": "as the sequence (P07949 29-1114) above, with M890T counted along it", "protocol": "as §1"}, "QIK": {"molecular_target": "QIK (Homo sapiens, UniProt Q9H0K1)", "protocol": "as §1"}, "p70S6K": {"molecular_target": "p70S6K (Homo sapiens, UniProt P23443)", "protocol": "as §1"}, "FLT4": {"molecular_target": "T15, FLT4 (Homo sapiens, UniProt P35916)", "T15 construct": "purchased Carna Biosciences", "T15 sequence (P35916 25-1363)": "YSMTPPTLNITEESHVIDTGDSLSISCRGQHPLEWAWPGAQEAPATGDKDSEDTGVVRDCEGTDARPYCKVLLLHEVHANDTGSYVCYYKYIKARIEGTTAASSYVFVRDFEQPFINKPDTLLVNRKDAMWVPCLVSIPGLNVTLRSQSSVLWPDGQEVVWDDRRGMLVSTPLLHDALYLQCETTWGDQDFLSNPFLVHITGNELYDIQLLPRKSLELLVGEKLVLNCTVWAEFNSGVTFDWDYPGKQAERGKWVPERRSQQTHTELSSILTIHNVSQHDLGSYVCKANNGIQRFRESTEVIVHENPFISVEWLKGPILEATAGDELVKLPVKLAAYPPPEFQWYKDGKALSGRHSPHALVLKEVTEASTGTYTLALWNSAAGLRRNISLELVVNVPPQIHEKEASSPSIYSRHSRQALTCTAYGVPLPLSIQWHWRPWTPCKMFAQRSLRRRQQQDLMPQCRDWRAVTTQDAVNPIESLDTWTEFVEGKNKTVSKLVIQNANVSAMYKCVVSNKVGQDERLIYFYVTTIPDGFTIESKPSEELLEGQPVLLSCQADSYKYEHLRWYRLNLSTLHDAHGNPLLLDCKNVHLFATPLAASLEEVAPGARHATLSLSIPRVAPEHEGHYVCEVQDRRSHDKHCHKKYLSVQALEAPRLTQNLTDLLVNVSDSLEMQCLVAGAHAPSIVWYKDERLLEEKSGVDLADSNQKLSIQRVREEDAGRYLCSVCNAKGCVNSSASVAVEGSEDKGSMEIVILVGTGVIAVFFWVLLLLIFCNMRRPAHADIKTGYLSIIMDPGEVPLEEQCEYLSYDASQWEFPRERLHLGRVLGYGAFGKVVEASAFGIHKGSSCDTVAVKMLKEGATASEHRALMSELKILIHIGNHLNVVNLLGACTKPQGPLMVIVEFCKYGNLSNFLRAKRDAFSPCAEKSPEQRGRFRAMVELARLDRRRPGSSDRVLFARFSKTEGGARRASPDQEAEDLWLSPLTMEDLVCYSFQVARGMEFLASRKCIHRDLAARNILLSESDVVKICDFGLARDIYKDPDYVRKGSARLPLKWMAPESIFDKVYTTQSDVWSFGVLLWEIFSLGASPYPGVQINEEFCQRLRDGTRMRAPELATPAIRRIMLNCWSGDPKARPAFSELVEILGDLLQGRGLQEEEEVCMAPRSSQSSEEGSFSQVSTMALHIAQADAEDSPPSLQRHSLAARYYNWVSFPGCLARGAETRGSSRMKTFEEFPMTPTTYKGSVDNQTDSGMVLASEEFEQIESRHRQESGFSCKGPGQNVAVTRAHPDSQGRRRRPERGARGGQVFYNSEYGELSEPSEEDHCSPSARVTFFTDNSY", "protocol": "as §1"}, "CLK1": {"molecular_target": "CLK1 (Homo sapiens, UniProt P49759)", "protocol": "as §1"}, "CDC7/ASK": {"molecular_target": "T16, CDC7/ASK (Homo sapiens, UniProt O00311)", "T16 construct": "purchased Carna Biosciences", "protocol": "as §1"}, "CHK1": {"molecular_target": "CHK1 (Homo sapiens, UniProt O14757)", "protocol": "as §1"}, "TNK1": {"molecular_target": "T17, TNK1 (Homo sapiens, UniProt Q13470)", "T17 construct": "purchased Carna Biosciences", "protocol": "as §1"}, "SYK": {"molecular_target": "SYK (Homo sapiens, UniProt P43405)", "protocol": "as §1"}, "TEC": {"molecular_target": "T18, TEC (Homo sapiens, UniProt P42680)", "T18 construct": "purchased Carna Biosciences", "protocol": "as §1"}}}
{"smiles": "C[C@@H](N)COc1ccc(-c2cnc3ccc(N[C@H](C)c4cccc(F)c4)nn23)cc1.O=C(O)CCCCC(=O)O", "note": "[DS-6051b]", "values": [{"measurement": "inhibition at 0.2 µM", "setting": "EPHA7", "value": -4.9, "unit": "%"}, {"measurement": "inhibition at 0.2 µM", "setting": "PIM1", "value": -3.6, "unit": "%"}, {"measurement": "inhibition at 0.2 µM", "setting": "PDGFRβ", "value": 3.1, "unit": "%"}, {"measurement": "inhibition at 0.2 µM", "setting": "PKD2", "value": -17.3, "unit": "%"}, {"measurement": "inhibition at 0.2 µM", "setting": "TYRO3", "value": -1.2, "unit": "%"}, {"measurement": "inhibition at 0.2 µM", "setting": "EPHA8", "value": -9.1, "unit": "%"}, {"measurement": "inhibition at 0.2 µM", "setting": "SIK", "value": 8.9, "unit": "%"}, {"measurement": "inhibition at 0.2 µM", "setting": "PKCε", "value": 18.8, "unit": "%"}, {"measurement": "inhibition at 0.2 µM", "setting": "skMLCK", "value": -7.1, "unit": "%"}, {"measurement": "inhibition at 0.2 µM", "setting": "p38β", "value": 0.7, "unit": "%"}, {"measurement": "inhibition at 0.2 µM", "setting": "CDK6/CycD3", "value": 2.1, "unit": "%"}, {"measurement": "inhibition at 0.2 µM", "setting": "HIPK4", "value": -1.6, "unit": "%"}, {"measurement": "inhibition at 0.2 µM", "setting": "HGK", "value": -8, "unit": "%"}, {"measurement": "inhibition at 0.2 µM", "setting": "RET", "value": 0.6, "unit": "%"}, {"measurement": "inhibition at 0.2 µM", "setting": "FGFR4", "value": 3.7, "unit": "%"}, {"measurement": "inhibition at 0.2 µM", "setting": "PYK2", "value": 8.9, "unit": "%"}, {"measurement": "inhibition at 0.2 µM", "setting": "SGK", "value": -3.8, "unit": "%"}, {"measurement": "inhibition at 0.2 µM", "setting": "AKT1", "value": -1.3, "unit": "%"}, {"measurement": "inhibition at 0.2 µM", "setting": "EGFR(d746-750)", "value": -3.4, "unit": "%"}, {"measurement": "inhibition at 0.2 µM", "setting": "Erk2", "value": -3.8, "unit": "%"}, {"measurement": "inhibition at 0.2 µM", "setting": "NEK6", "value": -0.6, "unit": "%"}, {"measurement": "inhibition at 0.2 µM", "setting": "CDK3/CycE1", "value": -1.2, "unit": "%"}, {"measurement": "inhibition at 0.2 µM", "setting": "EPHB3", "value": -0.7, "unit": "%"}, {"measurement": "inhibition at 0.2 µM", "setting": "TYK2", "value": 8.3, "unit": "%"}, {"measurement": "inhibition at 0.2 µM", "setting": "LCK", "value": 0.27, "unit": "%"}, {"measurement": "inhibition at 0.2 µM", "setting": "IRAK4", "value": -0.4, "unit": "%"}, {"measurement": "inhibition at 0.2 µM", "setting": "EPHB4", "value": -6.2, "unit": "%"}, {"measurement": "inhibition at 0.2 µM", "setting": "NEK2", "value": -0.8, "unit": "%"}, {"measurement": "inhibition at 0.2 µM", "setting": "JAK3", "value": 0.0922, "unit": "%"}, {"measurement": "inhibition at 0.2 µM", "setting": "CDK5/p25", "value": -7.4, "unit": "%"}, {"measurement": "inhibition at 0.2 µM", "setting": "SRC", "value": 9, "unit": "%"}, {"measurement": "inhibition at 0.2 µM", "setting": "CaMK1α", "value": -8.6, "unit": "%"}, {"measurement": "inhibition at 0.2 µM", "setting": "RET(M918T)", "value": 0.9, "unit": "%"}, {"measurement": "inhibition at 0.2 µM", "setting": "QIK", "value": -3.9, "unit": "%"}, {"measurement": "inhibition at 0.2 µM", "setting": "p70S6K", "value": 8.3, "unit": "%"}, {"measurement": "inhibition at 0.2 µM", "setting": "FLT4", "value": -4.4, "unit": "%"}, {"measurement": "inhibition at 0.2 µM", "setting": "CLK1", "value": 2, "unit": "%"}, {"measurement": "inhibition at 0.2 µM", "setting": "CDC7/ASK", "value": 8.5, "unit": "%"}, {"measurement": "inhibition at 0.2 µM", "setting": "CHK1", "value": -1.2, "unit": "%"}, {"measurement": "inhibition at 0.2 µM", "setting": "TNK1", "value": 12.7, "unit": "%"}, {"measurement": "inhibition at 0.2 µM", "setting": "SYK", "value": -2.5, "unit": "%"}, {"measurement": "inhibition at 0.2 µM", "setting": "TEC", "value": -1.2, "unit": "%"}]}
